According to ChEMBL document CHEMBL3588806, “Generation of Broad-Spectrum Antifungal Drug Candidates from the Natural Product Compound Aureobasidin A” (ACS Med Chem Lett, 2015):
≈ marks a conversion by molar mass, not a printed value. Starred links: 1 amine or outer side, 2 acyl side, 3 side chain; linkers in the order of their positions; H or OH if unused. Non-standard residues stand in square brackets, D forms with d. Residues, ends and D or L forms follow the SMILES beside them. NMePhe(3-(3-pyridyl)) = CN[C@@H](Cc1cccc(-c2cccnc2)c1)C(=O)O; X1 = CC[C@@H](C)[C@@H](O[*:1])C(=O)[*:2]; Hmp(2R,3S) = CC[C@H](C)[C@@H](O)C(=O)O; NMeVal(β-OH) = CN[C@H](C(=O)O)C(C)(C)O; NMeF = CN[C@@H](Cc1ccccc1)C(=O)O; aIle = CC[C@@H](C)[C@H](N)C(=O)O; NMeV = CN[C@H](C(=O)O)C(C)C

Tests used:
[1] = test system: Candida albicans; test: Antifungal activity against Candida albicans ATCC 90029 by broth dilution method; type: functional
[2] = test system: Candida albicans; test: Antifungal activity against Candida albicans ATCC 10231 by broth dilution method; type: functional
[3] = test system: Candida albicans; test: Antifungal activity against Candida albicans ATCC 24433 by broth dilution method; type: functional
[4] = test system: Nakaseomyces glabratus; test: Antifungal activity against Candida glabrata ATCC 90030 by broth dilution method; type: functional
[5] = test system: Aspergillus candidus; test: Antifungal activity against Aspergillus candidus ATCC 13686 by broth dilution method; type: functional
[6] = test system: Aspergillus flavus; test: Antifungal activity against Aspergillus flavus ATCC 22546 by broth dilution method; type: functional
[7] = test system: Rhizopus arrhizus; test: Antifungal activity against Rhizopus oryzae ATCC 11886 by broth dilution method; type: functional
[8] = test system: Sporothrix schenckii; test: Antifungal activity against Sporothrix schenckii ATCC 14284 by broth dilution method; type: functional
[9] = test system: Aspergillus fumigatus; test: Antifungal activity against Aspergillus fumigatus ATCC 20435 by broth dilution method; type: functional
[10] = test system: Aspergillus flavus; test: Antifungal activity against Aspergillus flavus ATCC 64025 by broth dilution method; type: functional
[11] = test system: Candida parapsilosis; test: Antifungal activity against Candida parapsilosis ATCC 22019 by broth dilution method; type: functional; conditions: Lodderomyces parapsilosis
[12] = test system: Pichia kudriavzevii; test: Antifungal activity against Issatchenkia orientalis ATCC 6258 by broth dilution method; type: functional
[13] = test system: Candida tropicalis; test: Antifungal activity against Candida tropicalis ATCC 90874 by broth dilution method; type: functional
[14] = test system: Aspergillus niger; test: Antifungal activity against Aspergillus niger ATCC 16888 by broth dilution method; type: functional
[15] = test system: Candida albicans; test: Antifungal activity against Candida albicans ATCC MYA-2732 by broth dilution method; type: functional
[16] = test system: Aspergillus niger; test: Antifungal activity against Aspergillus niger ATCC 64028 by broth dilution method; type: functional
[17] = test system: Aspergillus clavatus; test: Antifungal activity against Aspergillus clavatus ATCC 10058 by broth dilution method; type: functional
[18] = test system: Aspergillus ochraceus; test: Antifungal activity against Aspergillus ochraceus ATCC 96919 by broth dilution method; type: functional
[19] = test system: Aspergillus fumigatus; test: Antifungal activity against Aspergillus fumigatus ATCC MYA-32626 by broth dilution method; type: functional
[20] = test system: Aspergillus flavus; test: Antifungal activity against Aspergillus flavus ATCC 204304 by broth dilution method; type: functional
[21] = test system: Candida parapsilosis; test: Antifungal activity against Candida parapsilosis ATCC 90018 by broth dilution method; type: functional; conditions: Lodderomyces parapsilosis
[22] = test system: Meyerozyma guilliermondii; test: Antifungal activity against Candida guilliermondii ATCC 34134 by broth dilution method; type: functional
[23] = test system: Saccharomyces cerevisiae; test: Antifungal activity against Saccharomyces cerevisiae ATCC 7754 by broth dilution method; type: functional
[24] = test system: Trichophyton mentagrophytes; test: Antifungal activity against Trichophyton mentagrophytes ATCC 28185 by broth dilution method; type: functional
[25] = test system: Aspergillus nidulans; test: Antifungal activity against Emericella nidulans ATCC 96921 by broth dilution method; type: functional
[26] = test system: Candida albicans; test: Antifungal activity against Candida albicans ATCC 90028 by broth dilution method; type: functional
[27] = test system: Trichophyton mentagrophytes; test: Antifungal activity against Trichophyton mentagrophytes ATCC MYA-4439 by broth dilution method; type: functional
[28] = test system: Candida tropicalis; test: Antifungal activity against Candida tropicalis ATCC 750 by broth dilution method; type: functional
[29] = test system: Pichia kudriavzevii; test: Antifungal activity against Candida krusei ATCC 14243 by broth dilution method; type: functional
[30] = test system: Fusarium oxysporum; test: Antifungal activity against Fusarium oxysporum ATCC 48112 by broth dilution method; type: functional
[31] = test system: Clavispora lusitaniae; test: Antifungal activity against Candida lusitaniae ATCC 66035 by broth dilution method; type: functional
[32] = test system: Cryptococcus neoformans; test: Antifungal activity against Cryptococcus neoformans ATCC […] by broth dilution method; type: functional
[33] = test system: Trichophyton rubrum; test: Antifungal activity against Trichophyton rubrum ATCC MYA-4438 by broth dilution method; type: functional
[34] = test system: Candida albicans; test: Antifungal activity against Candida albicans ATCC 204276 by broth dilution method; type: functional
[35] = test system: Candida albicans; test: Antifungal activity against Candida albicans by broth dilution method; type: functional
[36] = Ratio of MIC for Aspergillus fumigatus to MIC for Candida albicans; type: functional
[37] = test system: Aspergillus fumigatus; test: Antifungal activity against Aspergillus fumigatus by broth dilution method; type: functional
[38] = Time dependent inhibition of Candida albicans ATCC 38247 membrane inositol phosphorylceramide synthase using ceramide as substrate

| SMILES | MIC [1] [µg/mL] | MIC [2] [µg/mL] | MIC [3] [µg/mL] | MIC [4] [µg/mL] | MIC [5] [µg/mL] | MIC [6] [µg/mL] | MIC [7] [µg/mL] | MIC [8] [µg/mL] | MIC [9] [µg/mL] | MIC [10] [µg/mL] | MIC [11] [µg/mL] | MIC [12] [µg/mL] | MIC [13] [µg/mL] | MIC [14] [µg/mL] | MIC [15] [µg/mL] | MIC [16] [µg/mL] | MIC [17] [µg/mL] | MIC [18] [µg/mL] | MIC [19] [µg/mL] | MIC [20] [µg/mL] | other results |
| --- | --- | --- | --- | --- | --- | --- | --- | --- | --- | --- | --- | --- | --- | --- | --- | --- | --- | --- | --- | --- | --- |
| C[C@@H]1[C@H](O)[C@@H](C)/C=C/C=C/C=C/C=C/C=C/C=C/C=C/[C@H](O[C@@H]2O[C@H](C)[C@@H](O)[C@H](N)[C@@H]2O)C[C@@H]2O[C@](O)(C[C@@H](O)C[C@@H](O)[C@H](O)CC[C@@H](O)C[C@@H](O)CC(=O)O[C@H]1C)C[C@H](O)[C@H]2C(=O)O [AMPHOTERICIN B] | 0.03 (≈ 0.0325 µM) | 0.03 (≈ 0.0325 µM) | 0.03 (≈ 0.0325 µM) | 0.03 (≈ 0.0325 µM) | 0.03 (≈ 0.0325 µM) | 0.25 (≈ 0.271 µM) | 0.03 (≈ 0.0325 µM) | 0.5 (≈ 0.541 µM) | 0.25 (≈ 0.271 µM) | 0.5 (≈ 0.541 µM) | 0.125 (≈ 0.135 µM) | 0.125 (≈ 0.135 µM) | 0.06 (≈ 0.0649 µM) | 0.03 (≈ 0.0325 µM) | 0.06 (≈ 0.0649 µM) | 0.015 (≈ 0.0162 µM) | 0.004 (≈ 0.00433 µM) | 0.25 (≈ 0.271 µM) | 0.25 (≈ 0.271 µM) | 0.25 (≈ 0.271 µM) | MIC [21]: 0.06 µg/mL (≈ 0.0649 µM); MIC [22]: 0.008 µg/mL (≈ 0.00866 µM); MIC [23]: 0.06 µg/mL (≈ 0.0649 µM); MIC [24]: 0.06 µg/mL (≈ 0.0649 µM); MIC [25]: 1 µg/mL (≈ 1.08 µM); MIC [26]: 0.03 µg/mL (≈ 0.0325 µM); MIC [27]: 0.06 µg/mL (≈ 0.0649 µM); MIC [28]: 0.06 µg/mL (≈ 0.0649 µM); MIC [29]: 0.125 µg/mL (≈ 0.135 µM); MIC [30]: 1 µg/mL (≈ 1.08 µM); MIC [31]: 0.015 µg/mL (≈ 0.0162 µM); MIC [32]: 0.015 µg/mL (≈ 0.0162 µM); MIC [33]: 0.03 µg/mL (≈ 0.0325 µM); MIC [34]: 0.06 µg/mL (≈ 0.0649 µM) |
| CC[C@H](C)[C@@H]1NC(=O)[C@@H]2CCCN2C(=O)[C@H](Cc2cccc(-c3cccnc3)c2)N(C)C(=O)[C@H](Cc2ccccc2)NC(=O)[C@H](C(C)C)N(C)C(=O)[C@@H]([C@@H](C)CC)OC(=O)[C@H](C(C)(C)O)N(C)C(=O)[C@H](CC(C)C)NC(=O)[C@H](C(C)C)N(C)C1=O (cyclo(F[NMePhe(3-(3-pyridyl))]PI[NMeV]L[NMeVal(β-OH)][Hmp(2R,3S)][NMeV])) | 0.5 (≈ 0.424 µM) | 1 (≈ 0.849 µM) | 0.125 (≈ 0.106 µM) | 0.03 (≈ 0.0255 µM) | 0.008 (≈ 0.00679 µM) | 2 (≈ 1.7 µM) | > 64 | > 64 | 1 (≈ 0.849 µM) | 1 (≈ 0.849 µM) | 0.06 (≈ 0.0509 µM) | 0.06 (≈ 0.0509 µM) | 0.015 (≈ 0.0127 µM) | 0.125 (≈ 0.106 µM) | 0.03 (≈ 0.0255 µM) | 0.03 (≈ 0.0255 µM) | 0.03 (≈ 0.0255 µM) | 0.25 (≈ 0.212 µM) | 2 (≈ 1.7 µM) | 1 (≈ 0.849 µM) | MIC [21]: 0.03 µg/mL (≈ 0.0255 µM); MIC [22]: 0.03 µg/mL (≈ 0.0255 µM); MIC [23]: 0.03 µg/mL (≈ 0.0255 µM); MIC [35]: < 0.05 µg/mL; Ratio [36]: > 10; MIC [24]: 1 µg/mL (≈ 0.849 µM); MIC [25]: 0.125 µg/mL (≈ 0.106 µM); MIC [26]: 0.015 µg/mL (≈ 0.0127 µM); MIC [27]: 0.5 µg/mL (≈ 0.424 µM); MIC [28]: 0.03 µg/mL (≈ 0.0255 µM); MIC [29]: 0.06 µg/mL (≈ 0.0509 µM); MIC [30]: > 64 µg/mL; MIC [31]: 0.125 µg/mL (≈ 0.106 µM); MIC [37]: < 0.94 µg/mL; MIC [32]: 0.03 µg/mL (≈ 0.0255 µM); MIC [33]: 2 µg/mL (≈ 1.7 µM); MIC [34]: 0.03 µg/mL (≈ 0.0255 µM) |
| CC[C@@H](C)[C@@H]1NC(=O)[C@@H]2CCCN2C(=O)[C@H](Cc2ccccc2)N(C)C(=O)[C@H](Cc2ccccc2)NC(=O)[C@H](C(C)C)N(C)C(=O)[C@@H]([C@H](C)CC)OC(=O)[C@H](C(C)(C)O)N(C)C(=O)[C@H](CC(C)C)NC(=O)[C@H](C(C)C)N(C)C1=O [AUREOBASIDIN A] (cyclo(F[NMeF]P[aIle][NMeV]L[NMeVal(β-OH)][X1][NMeV])) |  |  |  |  |  |  |  |  |  |  |  |  |  |  |  |  |  |  |  |  | MIC [35]: < 0.05 µg/mL; MIC [37]: > 25 µg/mL; Ki [38]: 0.2 nM |
